Experimental data published in patent US10744127B2, “MDR-reversing 8-hydroxy-quinoline derivatives” (MAGYAR TUDOMÁNYOS AKADÉMIA TERMÉSZETTUDOMÁNYI KUTATÓKÖZPONT, priority 2016, dated 2020).
pIC50: −log10 of the molar value. Read-outs that look alike come from different tables or passages of the source. Each block holds one molecule with its values, some of them ahead of it.

What was measured:
[1] = system: MES-SA/Dx5 cell line; test: Cytotoxicity, PrestoBlue cell viability assay, MES-SA/Dx5; type: cell-based; details: Homo sapiens; for pIC50: Mes-sa/Dx5 cell line, PrestoBlue assay, 72 hours (Table 1), read-out: IC50
Procedure: (§1) The human uterine sarcoma cell line MES-SA and its doxorubicin resistant counterpart MES-SA/Dx5 were obtained from ATCC (MES-SA: No. CRL-1976™, MES-SA-Dx5: No. CRL-1977™). MES-SA/Dx5 cells express high levels of P-gp, and therefore are multidrug resistant (MDR). Cells were cultured in DMEM supplemented with 10% FBS, 5 mmol/L glutamine and 50 unit/mL penicillin and streptomycin (Life Technologies).
(§2) Cell survival was measured by the PrestoBlue® Cell Viability Reagent (Life Technologies, USA). Cells were seeded in 100 μl medium at a density of 5000 cells/well in 96-well plates; the serially diluted drug was added the following day. Cells were then incubated for 72 hours at 37° C. in 5% CO2; the drug containing medium was removed, and the PrestoBlue® reagent was added according to the manufacturer's instructions. Fluorescence of the cells was measured by a Perkin Elmer EnSpire multimode plate reader or Perkin Elmer Victor X3 microplate reader. Data were background corrected and normalized to untreated cells. Curves were fitted with the help of Prism software using the sigmoidal dose-response model. Curve fit statistics were used to determine IC50 values. Differences between the IC50 values of the respective cell lines were analyzed by two-sided […] unpaired Student's t test and results were considered statistically significant at a P value of <0.05 (*) or 0.01 (**).

[2] = system: A431 and A431-B1 cell lines; test: Selective toxicity in A431 and A431-B1 cell lines; type: cell-based, human; details: A431 versus P-gp-transfected A431-B1
Procedure: as §2
(§3) Data on selective toxicity (expressed as Selectivity Ratio, SR) in two MDR models engineered by retroviral transfection of P-glycoprotein (A431/A431-B1 and MDCK II/MDCK II B1 cell lines) are presented in Table 3 and Table 4.
(§4) A431 is a human epidermoid carcinoma cell line. Its derivative, the A431-B1 cell line expresses P-gp due to retroviral transfection of the mdr1 gene Türk, D. et al (Türk, D. et al., 2009). MDCK II is a canine kidney cell line. MDCK II B1 was created by inserting the mdr1 gene with transposons [Pape V F S et al. 2015] Both cell express P-gp stably, and show a stable MDR phenotype. Culture conditions were identical as in the case of MES-SA cells.

[3] = system: MES-SA and multidrug-resistant MES-SA/Dx5 cell line; test: Selective toxicity (ratio of IC50 in MES-SA to IC50 in MES-SA/Dx5) and activity index; type: cell-based, human
Description: Compounds having P-gp potentiated MDR-selective activity can be characterized by their inhibitory concentration (IC) with regard to a specific cancer cell line. Usually the IC value is given at a certain percentage ratio of non-inhibited molecules or surviving cells. For example an IC20 value of a compound on a cell line means that at this inhibitory concentration of the compound 80% of the cells are killed whereas 20% of the cells are still viable. A further characteristic of MDR-selective drugs is the selectivity ratio (SR), which is the ratio of the IC value measured in a non-multidrug resistant cell line to (i.e. divided by) the IC value measured in the corresponding transformed, multidrug-resistant cell line. The inverse value, the resistance ratio (RR) is calculated as the ratio of a compound's IC value against a multidrug resistant cell line divided by the parallel IC value of the same compound against a control non-multidrug resistant cell line. The Activity Index (AI) is calculated here as the ratio of the compound's selectivity ratio (SR) and the compound's IC50 value against the resistant cell. The AI reflects the level of simultaneous toxicity and selectivity towards multidrug-resistant cancer cells.
as §1, §2
Selectivity towards multidrug-resistant cells is expressed as the ratio of the IC50 value measured in the parental MES-SA and multidrug-resistant MES-SA/Dx5 cell line (Selectivity Ratio, SR).
A novel characteristic of the compounds presented in this invention is that they exert their selective cytotoxicity at low IC50 values. Simultaneous toxicity and selectivity towards multidrug-resistant cancer cells is reflected by the Activity Index (AI) of the compounds, which is the ratio of the selectivity ratio (SR) and the IC50 value on the resistant cell line.

[4] = system: MES-SA and MES-SA/Dx5 cells; test: Selective toxicity in the presence of the P-gp inhibitor tariquidar; type: cell-based, human; details: selectivity ratio in the presence of tariquidar (1 μM)
Procedure: In the presence of tariquidar (an inhibitor of P-gp function), the toxicity of the compounds selectively diminishes in multidrug-resistant MES-SA/Dx5 cells, while the toxicity is unchanged against parental MESSA cells, which is reflected by a decrease in the selectivity ratio (SR (TQ)).
To investigate the contribution of P-glycoprotein to the cytotoxic effect of a compound, cell survival was measured in the presence of the P-glycoprotein inhibitor tariquidar (1 μM). Tariquidar (CAS 206873-63-4) can be obtained e.g. from Selleck, Houston, USA.

[5] = system: MDCK II and MDCK II B1 cell lines; test: Selective toxicity towards MDCK II and MDCK II B1 cell lines; type: cell-based, canine; details: MDCK II versus MDCK II B1
Procedure: as §2, §3, §4

[6] = system: P-gp-expressing MES-SA/Dx5 cells; test: P-gp switch assay (Calcein AM); type: cell-based, human; details: MES-SA/Dx5, single dose at IC20 (killing 80% of the cells), surviving population at 80% confluence, Calcein AM
Procedure: One million P-gp-expressing MES-SA/Dx5 cells were plated in a T25 cell culture flask. After 24 hours the compound of interest was added directly to the cells at a concentration corresponding to the IC20 value (killing 80% of the cells). After 5 days the culture media was removed, the cells were washed with PBS and the culture medium was exchanged. Cells were monitored daily and the recovery was recorded. The medium was changed every 5 days until the confluence of the cells reached 80%. At 80% confluence the cells were removed by gentle trypsinization, counted by an automated cell counter and stained with Calcein AM, a cellular dye able to detect the function of P-gp (Homolya 1993). P-gp-positivity was evaluated based on the ability of P-gp-expressing cells to extrude Calcein AM.

[7] = system: MES-SA cell line; test: Cytotoxicity, PrestoBlue cell viability assay, parental MES-SA; type: cell-based; details: Homo sapiens; parental MES-SA cell line (Table 2a)
Procedure: as §1, §2

[8] = MES-SA/Dx5 (Table 2b), read-out: IC50 (μM) Dx5
[9] = MES-SA / MES-SA/Dx5, without tariquidar (Table 5)
[10] = multidrug-resistant MES-SA/Dx5 cell line (Table 2a), read-out: IC50 (nM) in MES-SA/Dx5 cell line

Structure (SMILES): Oc1c(C2NCCc3ccccc32)cc(Br)c2cccnc12 (stereo not shown) [Example 14, 5-Bromo-7-(1,2,3,4-tetrahydroisoquinolin-1-yl)quinolin-8-ol]
IC50 [1, 8]: 0.13 µM
pIC50 [1]: 6.89
Selectivity Ratio (SR) (A431/A431-B1) [2]: 13.7
SR ([3]; MES-SA / MES-SA/Dx5 (Table 2b)): 7.8

Structure (SMILES): COc1cc2c(cc1OC)C(c1cc(Cl)c3cccnc3c1O)NCC2 (stereo not shown) [Example 16, 5-Chloro-7-(6,7-dimethoxy-1,2,3,4-tetrahydroisoquinolin-1-yl)quinolin-8-ol]
SR (TQ) [4]: 0.9
Selectivity Ratio (SR) (A431/A431-B1) [2]: 24.7
SR [3, 9]: 10.3

Structure (SMILES): Cc1ccc2ccc(C3NCCc4sccc43)c(O)c2n1 (stereo not shown) [Example 20]
Selectivity Ratio (SR) (A431/A431-B1) [2]: 13.2
Selectivity Ratio (SR) (MDCK II/MDCK II B1) [5]: 10.0

Structure (SMILES): O=[N+]([O-])c1cc(C2NCCc3sccc32)c(O)c2ncccc12 (stereo not shown) [Example 19, 5-Nitro-7-(4,5,6,7-tetrahydrothieno[3,2-c]pyridin-4-yl)quinolin-8-ol]
Selectivity Ratio (SR) (A431/A431-B1) [2]: 24.7

Structure (SMILES): Oc1c(C2NCCc3sccc32)ccc2cccnc12 (stereo not shown) [Example 18, 7-(4,5,6,7-Tetrahydrothieno[3,2-c]pyridin-4-yl)quinolin-8-ol]
Fraction of P-gp-negative cells (P3) in the population [6]: 80.6%
Fraction of P-gp-positive cells (P4) in the population [6]: 19.40%
pIC50 [1]: 6.80

Structure (SMILES): O=C1NC2CCCCC2NC1c1cc(Cl)c2cccnc2c1O (mixture of isomers) [Example 22, (3R,4aS,8aS)-3-(5-Chloro-8-hydroxyquinolin-7-yl)octahydroquinoxalin-2(1H)-one and (3S,4aS,8aS)-3-(5-chloro-8-hydroxyquinolin-7-yl)octahydroquinoxalin-2(1H)-one]
Selectivity Ratio (SR) (A431/A431-B1) [2]: 18.8

Structure (SMILES): O=[N+]([O-])c1cc(C2NCCc3ccccc32)c(O)c2ncccc12 (stereo not shown) [Example 15, 5-Nitro-7-(1,2,3,4-tetrahydroisoquinolin-1-yl)quinolin-8-ol]
Fraction of P-gp-negative cells (P3) in the population [6]: 67.2%
Fraction of P-gp-positive cells (P4) in the population [6]: 32.80%
IC50 [1, 8]: 0.59 µM
IC50 [1, 10]: 0.594 µM
SR (TQ) [4]: 1.4
IC50 [7]: 12400 nM
SR ([3]; MES-SA / MES-SA/Dx5 (Table 2b)): 23.8
SR [3, 9]: 23.8

Structure (SMILES): Oc1c(C2NCCc3ccccc32)cc(Cl)c2cccnc12 (stereo not shown) [Example 13, 5-Chloro-7-(1,2,3,4-tetrahydroisoquinolin-1-yl)quinolin-8-ol]
Fraction of P-gp-negative cells (P3) in the population [6]: 88.00%
Fraction of P-gp-positive cells (P4) in the population [6]: 12.00%
pIC50 [1]: 6.90

Structure (SMILES): COc1ccc(CNCc2cc(S(C)(=O)=O)c3cccnc3c2O)c(OC)c1 [Example 37, 7-(((2,4-Dimethoxybenzyl)amino)methyl)-5-(methylsulfonyl)quinolin-8-ol]
Selectivity Ratio (SR) (A431/A431-B1) [2]: 16.7
Selectivity Ratio (SR) (MDCK II/MDCK II B1) [5]: 8.9

Structure (SMILES): Cl.Oc1c(CNCc2ccccc2F)cc(Cl)c2cccnc12 [Example 12, 5-Chloro-7-({[(2-fluorophenyl)methyl]amino}methyl)quinolin-8-ol Hydrochloride]
Selectivity Ratio (SR) (MDCK II/MDCK II B1) [5]: 8.3

The next lines start with results.

melting point: 125 to 127 °C
Structure (SMILES): COc1ccc(CNCc2cc(Cl)c3cccnc3c2O)cc1 [Example 7, 5-Chloro-7-(((4-methoxybenzyl)amino)methyl)quinolin-8-ol]
SR (TQ) [4]: 1.3
Selectivity Ratio (SR) (A431/A431-B1) [2]: 12.6
SR [3, 9]: 13.4

melting point: 213 to 214 °C
Structure (SMILES): C/C(=N\Nc1ccc2cccc(O)c2n1)c1ccccn1 [Example 2, (E/Z)-2-(2-(1-(Pyridine-2-yl)ethylidene)hydrazinyl)quinolin-8-ol]

melting point: 123 to 125 °C
Structure (SMILES): Oc1c(CNC2CCCCC2)cc(Cl)c2cccnc12 [Example 6, 5-Chloro-7-((cyclohexylamino)methyl)quinolin-8-ol]
Selectivity Ratio (SR) (A431/A431-B1) [2]: 11.5

melting point: 206 to 209 °C
Structure (SMILES): COc1ccc(CNCc2cc([N+](=O)[O-])c3cccnc3c2O)c(OC)c1 [Example 28, 7-(((2,4-Dimethoxybenzyl)amino)methyl)-5-nitroquinolin-8-ol]
IC50 [1, 8]: 0.44 µM
IC50 [1, 10]: 0.442 µM
SR (TQ) [4]: 1.6
IC50 [7]: 8650 nM
SR ([3]; MES-SA / MES-SA/Dx5 (Table 2b)): 19.7
SR [3, 9]: 19.7

melting point: 225 to 228 °C
Structure (SMILES): C/C(=N\Nc1ccc2cccc(O)c2n1)c1ccccc1O [Example 1, (E/Z)-2-(2-(1-(2-Hydroxyphenyl)ethylidene)hydrazinyl)quinolin-8-ol]

melting point: 184 to 187 °C
Structure (SMILES): C/C(=N\Nc1ccc2ccc(CN3CCCCC3)c(O)c2n1)c1ccccc1O [Example 4, (E/Z)-2-(2-(1-(2-Hydroxyphenyl)ethylidene)hydrazinyl)-7-(piperidin-1-ylmethyl)quinolin-8-ol]
IC50 [1, 8]: 0.16 µM
pIC50 [1]: 6.80
Selectivity Ratio (SR) (A431/A431-B1) [2]: 11.7
SR ([3]; MES-SA / MES-SA/Dx5 (Table 2b)): 5.9

melting point: 129 to 132 °C
Structure (SMILES): COc1ccc(CNCc2cc(Br)c3cccnc3c2O)cc1 [Example 10, 5-Bromo-7-(((4-methoxybenzyl)amino)methyl)quinolin-8-ol]
Selectivity Ratio (SR) (A431/A431-B1) [2]: 11.2

melting point: 248 to 250 °C
Structure (SMILES): Oc1c(CN2CCCCC2)ccc2ccc(N/N=C/c3ccccn3)nc12 [Example 5, (E/Z)-7-(Piperidin-1-ylmethyl)-2-(2-(pyridine-2-ylmethylene)hydrazinyl)quinolin-8-ol]
Fraction of P-gp-negative cells (P3) in the population [6]: 67.6%
Fraction of P-gp-positive cells (P4) in the population [6]: 32.40%
IC50 [1, 10]: 1.97 µM
SR (TQ) [4]: 1.2
IC50 [7]: 40500 nM
SR [3, 9]: 20.9

melting point: 199 to 203 °C
Structure (SMILES): COc1ccccc1CNCc1cc([N+](=O)[O-])c2cccnc2c1O [Example 29, 7-(((2-Methoxybenzyl)amino)methyl)-5-nitroquinolin-8-ol]
IC50 [1, 10]: 2.09 µM
Selectivity Ratio (SR) (A431/A431-B1) [2]: 25.1
Selectivity Ratio (SR) (MDCK II/MDCK II B1) [5]: 17.1
IC50 [7]: 40600 nM
Selectivity Ratio (SR) ([3]; IC50 in MES-SA divided by IC50 in MES-SA/Dx5 (Table 2a)): 19.2

melting point: 135 to 137 °C
Structure (SMILES): COc1ccccc1CNCc1cc(Br)c2cccnc2c1O [Example 8, 5-Bromo-7-(((2-methoxybenzyl)amino)methyl)quinolin-8-ol]
IC50 [1, 8]: 0.16 µM
pIC50 [1]: 6.79
SR ([3]; MES-SA / MES-SA/Dx5 (Table 2b)): 13.5
